Where two headings read alike, the source gives them in different places.
Experiments:
[1] = parameters: species or system C57BL/6J mice; conditions: mouse, in vivo, po
Description: FIG. 3: Effects of 1α,25(OH)2D3 and new ligands (compounds A and B) on calcium levels in serum. (FIG. 3.1) Mice were fed either with vehicle (sesame oil), 1α,25(OH)2D3 2 μg/kg, 2 μg/kg compound A or 2 μg/kg compound B during 7 days. (FIG. 3.2) Mice were fed either with vehicle (Veh), 1α,25(OH)2D3 (D3), or compound A during 4 days. Data are presented as mean±SEM. Significant differences are marked as *p<0.05, ***p<0.01.
Male C57BL/6J mice, 6-7 weeks of age, were obtained from Charles River Laboratories France (l'Arbresle, France). All mice were maintained in a temperature-controlled (23° C.) facility with a 12 h light/dark cycle and were given free access to food and water. The mice were fed the EQ12310 diet from UAR (Villemoison sur Orge, France), which contained 16.8% protein, 73.5% carbohydrate and 4.8% fat. The different VDR agonists were dissolved in sesame oil and administered by oral gavage at the indicated doses. The mice were fasted 4 h before harvesting blood for subsequent Calcium measurements, which were performed as described (1).
Thereafter a detailed dose response (0.2, 0.5, 1, and 2 μg/kg) was performed with both 1α,25(OH)2D3, and compound A (FIG. 3.2). In this study compounds were gavaged during 4 consecutive days.

human VDR = molecular target: T1, human VDR (Homo sapiens, UniProt P11473); experiment: Transfection and transactivation assay (GAL4 DBD-VDR LBD, UAS-TATA-luciferase reporter, 293 EBNA cells); type: cell-based; conditions: for VDR agonist character: summary statement
T1 construct: an expression plasmid of GAL4 DBD-VDR LBD; expressed in transfected cells; host or cells: 293 EBNA cells
T1 sequence (P11473 127-423 limits assumed): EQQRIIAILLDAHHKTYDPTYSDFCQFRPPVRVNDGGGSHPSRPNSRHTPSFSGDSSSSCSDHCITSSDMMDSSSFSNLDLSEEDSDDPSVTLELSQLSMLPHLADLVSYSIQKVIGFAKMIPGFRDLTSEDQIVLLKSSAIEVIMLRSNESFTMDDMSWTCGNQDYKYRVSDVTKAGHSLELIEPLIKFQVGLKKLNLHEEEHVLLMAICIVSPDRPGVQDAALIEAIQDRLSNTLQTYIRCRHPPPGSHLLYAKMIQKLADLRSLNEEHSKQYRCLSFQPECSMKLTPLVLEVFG
Source text: FIG. 2: Transcriptional activation of VDR by 1α,25(OH)2D3, compound A and compound B. 293 EBNA cells were transiently transfected with a UAS-TATA-luciferase reporter plasmid and an expression plasmid of GAL4 DBD-VDR LBD and subsequently treated with 1α,25(OH)2D3, compound A (A), and compound B (B) at 10^−10 and 10^−9M. Luciferase activity for each sample was normalized to the β-galactosidase activity. Data is shown as fold induction of agonist induced luciferase activity divided by luciferase activity of vehicle.
The human VDR LBD was subcloned into the pG4M derived plasmid as a Gal fusion protein. Transient transfection experiments for the analysis of VDR activation were performed in 48 wells plates, using a standard calcium phosphate coprecipitation technique as described (11). 293 EBNA cells were seeded (6.0×10^4 cells per well) and incubated for 24 hours at 37° C. in medium containing Dulbecco medium (DMEM+1 g/L glucose), 10% FCS, gentamycine and 1 mg/ml G418 (geneticin). 293 EBNA cells were transiently transfected with 12.5 ng of Gal-4-VDR LBD plasmid, 10 ng of UAS-TATA-luciferase reporter plasmid, and 37.5 ng of PCH110 internal control recombinant expressing β-galactoside plasmid. After cells were incubated for 8 hours at 37° C., the medium was replaced and the compounds were added in optimized serial dilutions. After 20 hours at 37° C., cells were washed with PBS and harvested in Passiv lysis buffer (Promega). The cell lysates were assayed for lusiferase and β-galactosidase activity. Luciferase activity for each sample was normalized to β-galactosidase activity. Cells were treated with 1α, 25(OH)2D3, compound A, and compound B. All experiments were performed in duplicates.

| dose at which the effect on serum calcium levels became significant / caused hypercalcemia [1] [µg/kg] | VDR agonist character (human VDR) | transcriptional activities of human VDR induced, times more efficiently than 1α,25(OH)2D3 (human VDR; at 10^−10 M, 293 EBNA cells, luciferase normalized to β-galactosidase) [times] | dose at which the effect on serum calcium levels became significant / caused hypercalcemia ([1]; male, C57BL/6J, 4 days) [µg/kg] | effect on serum calcium levels compared with 1α,25(OH)2D3 [1] | Structure (SMILES) |
| --- | --- | --- | --- | --- | --- |
| 1 | – | – | – | – | C=C1/C(=C\C=C2/CCC[C@]3(C)[C@@H]([C@H](C)CCCC(C)(C)O)CC[C@@H]23)C[C@@H](O)C[C@@H]1O [1α,25(OH)2D3, reference compound] |
| – | behaves like 1α,25(OH)2D3 | – | – | – | C=C1/C(=C\C=C2/CCC[C@@]3(C)[C@H]2CC[C@@H]3[C@]2(C)C[C@@H](CC(C)(C)O)CO2)C[C@@H](O)C[C@@H]1O [compound B, (1R,3S,5Z)-5-((E)-2-((1S,3aS,7aS)-hexahydro-1-((2S,4R)-tetrahydro-4-(2-hydroxy-2-methylpropyl)-2-methylfuran-2-yl)-7a-methyl-1H-inden-4(7aH)-ylidene)ethylidene)-4-methylenecyclohexane-1,3-diol] |
| – | superagonist activity | 12 | 2 | weaker effect on serum calcium levels | C=C1/C(=C\C=C2/CCC[C@@]3(C)[C@H]2CC[C@@H]3[C@]2(C)C[C@H](CC(C)(C)O)CO2)C[C@@H](O)C[C@@H]1O [compound A, (1R,3S,5Z)-5-((E)-2-((1S,3aS,7aS)-hexahydro-1-((2S,4S)-tetrahydro-4-(2-hydroxy-2-methylpropyl)-2-methylfuran-2-yl)-7a-methyl-1H-inden-4(7aH)-ylidene)ethylidene)-4-methylenecyclohexane-1,3-diol] |

— US8198263B2, “Vitamin D derivatives active on the vitamin D nuclear receptor, preparation and uses thereof” (Centre National de la Recherche Scientifique, priority 2005, dated 2012)
